In brackets after ≈: the same amount, converted by molar mass. Each block holds one compound with its values, some of them ahead of it.
Experiments:
[1] = Solubility test of dutasteride and tadalafil in oils; assay type: physicochemical; conditions: for solubility in a general oil: castor oil or soybean oil; for Solubility / solubility at 24 h: room temperature, stirring for 24 hours; for solubility at 24 h: oil or lipid, thermodynamic from solid
Description: In order to determine the solubility of dutasteride and tadalafil in oils, the solubilities to soybean oil, castor oil, glycerol monooleate, glycerol caprylate/caprate, propylene glycol monocaprylate and propylene glycol monolaurate were measured. A magnetic bar was placed in a 10 ml, vial, and 3 ml, of oil was added thereto. Then, while the mixture was stirred at room temperature, 100 mg of the main component was added thereto and the mixture was stirred at 500 rpm or higher. After stirring for 24 hours, only a supernatant was taken by a centrifugal separator, and an amount of the main component dissolved in the oil phase was quantitated by using a liquid chromatograph.

[2] = as above; assay type: physicochemical; conditions: room temperature, stirring for 24 hours; for solubility at 24 h: oil or lipid, thermodynamic from solid
[3] = in glycerol caprylate/caprate, glycerol monooleate, propylene glycol monocaprylate and propylene glycol monolaurate
[4] = in glycerol fatty acid ester derivative or propylene glycol fatty acid ester derivative as oil component

Compound: 17β-N-(2,5-bis (trifluoromethyl)) phenylcarbamoyl-4-aza-5α-androst-1-en-3-one [dutasteride]
- solubility in a general oil [1]: low
- solubility of dutasteride [1, 3]: ≥ 2500 µg/mL
- solubility of dutasteride [1, 4]: ≥ 1000 µg/mL
- Solubility ([1]; solvent Castor oil): 1500 µg/mL
- Solubility ([1]; solvent Glycerol caprylate/caprate): 14340 µg/mL
- Solubility ([1]; solvent Glycerol monooleate): 4580 µg/mL
- Solubility ([1]; solvent Propylene glycol dicaprate): 770 µg/mL
- Solubility ([1]; solvent Propylene glycol dicaprylate): 1130 µg/mL
- Solubility ([1]; solvent Propylene glycol monocaprylate): 20980 µg/mL
- Solubility ([1]; solvent Propylene glycol monolaurate): 9340 µg/mL
- Solubility ([2]; solvent Glycerol tricaprylate): 840 µg/mL

- solubility in a general oil [1]: low
- solubility at 24 h ([1]; glycerol caprylate/caprate (oil), solvent Glycerol caprylate/caprate): 4130 µg/mL (≈ 10600 µM)
- solubility at 24 h ([1]; glycerol monooleate (oil), solvent Glycerol monooleate): 1110 µg/mL (≈ 2850 µM)
- solubility of tadalafil relative to that of dutasteride [1, 3]: ⅓
- solubility of tadalafil relative to the solubility of dutasteride [1, 4]: ½
- solubility at 24 h ([1]; solvent Castor oil): 1030 µg/mL (≈ 2650 µM)
- solubility at 24 h ([1]; solvent Soybean oil): 240 µg/mL (≈ 616 µM)
- solubility at 24 h ([1]; propylene glycol dicaprate (oil), solvent Propylene glycol dicaprate): 270 µg/mL (≈ 693 µM)
- solubility at 24 h ([1]; propylene glycol monocaprylate (oil), solvent Propylene glycol monocaprylate): 4090 µg/mL (≈ 10500 µM)
- solubility at 24 h ([1]; propylene glycol monolaurate (oil), solvent Propylene glycol monolaurate): 1030 µg/mL (≈ 2650 µM)
- solubility at 24 h ([2]; glycerol tricaprylate (oil), solvent Glycerol tricaprylate): 400 µg/mL (≈ 1030 µM)
- solubility at 24 h ([2]; propylene glycol dicaprylate (oil), solvent Propylene glycol dicaprylate): 440 µg/mL (≈ 1130 µM)
Compound: CN1CC(=O)N2[C@H](c3ccc4c(c3)OCO4)c3[nH]c4ccccc4c3C[C@@H]2C1=O [tadalafil, 6R-trans-6-(1,3-benzodioxol-5-yl)-2,3,6,7,12,12a-hexahydro-2-methyl-pyrazino [1′,2′:1,6] pyrido[3,4-b]indole-1,4-dione]

From patent US20190216827A1, “Composite Formulation of Dutasteride and Tadalafil Comprising Glycerol Fatty Acid Ester Derivative or Propylene Glycol Fatty Acid Ester Derivative and Oral Capsule Formulation Comprising the Same” (Yuyu Pharma, Inc., priority 2016, published 2019)
